Columns and labels:
[1] = Baba et al., Gann 69, 1978; cited from earlier work
[2] = Plasma half-life after i.v. injection, liposomal and free prodrug; type: in vivo, CD1 nu/nu mice
[3] = tested on: Salmonella typhimurium antigen (STA) induced foot swelling; test: Delayed Type Hypersensitivity (DTH), 24 h foot swelling; type: in vivo, mouse
Description: c) DTH model in the mouse
The effect of 14-O-[4-(beta-D-glucuronyloxy)-3nitrobenzylaminocarbonyl]doxorubicin (prodrug) on inflammation was investigated in a model of delayed type cutaneous reaction (Delayed Type Hypersensitivity, DTH) corresponding to the method described by Collins and Mackaness (J. Immunol. 101: 830-845,1968).
In this model, mice were immunized with a defined amount of killed Salmonella typhimurium bacteria (109) twice at an interval of one week. Three. weeks after the first immunization a DTH reaction was provoked by intraplantar injection of a Salmonella typhimurium antigen (STA). A local inflammatory infiltrate which was composed of granulocytes, macrophages, lymphocytes and accumulated interstitial fluid developed. The extent of the reaction was measured by the increase in foot swelling 24 hours after provocation of the reaction. The effect of the prodrug on the inflammatory reaction was tested with two treatment schemes. One group received a single intravenous administration of 500 mg/kg prodrug 2 hours after the STA injection, and another group received three injections of, in each case, 300 mg/kg prodrug at times 2, 5 and 8 hours after the STA injection.

[4] = Acute toxicity in nude mice (LD50, survival on day 14); details: mouse, in vivo, iv, nude mice (CD-1, nu/nu), 5 min infusion
Description: To determine the acute toxicity, nude mice (CD-1, nu/nu) were infused on day 0 with various doses of the test substance dissolved in 0.5 ml of 5% glucose solution over a period of 5 minutes. Control groups receive merely 0.5 ml of 5% glucose solution. 5 mice are used per concentration of the test substance. The number of mice surviving on day 14 is determined, and the Litchfield Wilcoxon method is used to determine the LD50.

[5] = tested on: human colon tumors (LoVo); test: Inhibition of growth of human colon tumors (LoVo) growing subcutaneously in the nude mouse; type: in vivo, human tumor in nude mouse; details: for T/C: 1 × i.v., d0
Description: The tested human tumors are routinely maintained and passaged in nude mice. The tumors are tested for human characteristics by immunohistochemistry using monoclonal antibodies at each 3rd passage. The tumor is removed under sterile conditions and cut into small pieces of about 5-10 mm^3. One piece of tumor is implanted subcutaneously into the side of each nude mouse. After about 7-14 days, the piece of tumor is adherent to the surrounding tissue, and the tumor size A is determined with the aid of a calliper rule and measurement of two opposite diameters (a, b) by the following formula: […]
After another measurement of the tumor size carried out at an interval of 3 days, the animals are randomized to the control group and to the groups to be treated (6 animals in each group). Only animals in which a progressive tumor growth was found are used for this. Starting with the day of randomization ([…]), the animals are treated with the test substances in accordance with the scheme indicated below. Twice a week the two tumor diameters are measured for each mouse, and the individual tumor areas are calculated in accordance with the abovementioried formula.
After completion of the experiment, the relative tumor sizes for each individual animal on the particular measurement day are calculated by the formula: Ar =A(day X) /A(day 0). The median for the treated group (AT) is then related to the median for the relative control tumor size (AC), and T/C%=AT /AC […] is calculated. The statistical significance of the antitumor effect is determined with the aid of the Wilcoxon U test.

[6] = tested on: human tumor xenografts (ovarian, breast, stomach, lung and bowel carcinomas); test: Prodrug activation/monotherapy in human tumor xenografts; type: in vivo, human tumor in nude mouse
Description: It was possible to show by means of a histochemical test (Murray et al., the journal of histochemistry and cytochemistry 37, 643-652, 1989) for determining. functional human β-glucuronidase that functionally active human .rho.-glucuronidase is present within the necrosis; i.e. cells whose cytoplasmic membrane has already been damaged still contain functionally active β-glucuronidase in the cytoplasm. This human β-glucuronidase which is localized in the necrosis and is not protected by the cytoplasmic membrane brings about the cleavage of the hydrophilic prodrug to the drug in the LoVo tumor.

EAE = EAE model; type: in vivo
Description: Schorlemmer et al., Drugs Exptl. Clin. Res. XVII (10/11) 461-469 (1991)

adjuvant arthritis = test: Adjuvant arthritis in the rat; type: in vivo
Description: b) Adjuvant arthritis in the rat

mouse mammary carcinoma = details: ten i.v. administrations and glucose acidification; treatment started 24 h after implantation; cited from earlier work
[7] = butyric acid liberated from prodrugs in vivo; cited from earlier work

O=c1[nH]cc(F)c(=O)[nH]1 [Compound 5-FU, 5-fluorouracil]
LD50 [1]: 200 mg/kg

COc1cccc2c1C(=O)c1c(O)c3c(c(O)c1C2=O)C[C@@](O)(C(=O)COC(=O)NCc1ccc(O[C@@H]2O[C@H](C(=O)O)[C@@H](O)[C@H](O)[C@H]2O)c([N+](=O)[O-])c1)C[C@@H]3O[C@H]1C[C@H](N)[C@H](O)[C@H](C)O1 [Compound 8, 14-O-[4-(Beta-D-glucuronyloxy)-3-nitrobenzylaminocarbonyl]doxorubicin]
half-life ([2]; mouse, plasma, iv, free prodrug, CD1 nu/nu mice (data not shown)): ~20 min
increase in plasma half-life after protein preincubation ([2]; preincubation with 50 g/l human serum albumin or human acid alpha-1 glycoprotein): less distinct increase in the plasma half-life
24 h foot swelling ([3]; 300 mg/kg, 3 × i.v. (t = +2, +5, +8 h), marked xx): 1.1 ± 1.3
24 h foot swelling ([3]; 500 mg/kg, 1 × i.v. (t = +2 h), mean ± spread, marked x): 3.5 ± 3.9
effect by comparison with standard therapy ([3]; DTH): superior effect
reduction in the inflammatory reaction ([3]; both prodrug treatment schemes): significant reduction in the inflammatory reaction
effect compared with ibuprofen ([3]; three administrations of prodrug (300 mg/kg)): slightly superior to the standard therapy
LD50 at 336 h [4]: > 1500 mg/kg
T/C ([5]; 500 mg/kg, listed as Prodrug): 40.0%
T/C ([5]; 500 mg/kg, listed as prodrug): ~ 40%
efficacy compared with fusion protein in combination with prodrug ([5]; LoVo, prodrug alone): as effective as in the group which received fusion protein in combination with prodrug
statistical significance (p) of difference to doxorubicin treatment ([5]; tumor growth, vs doxorubicin treatment): < 0.05
effect of prodrug monotherapy on tumors without significant necrosis ([6]; non-necrotic tumors (data not shown)): cannot be treated by prodrug monotherapy
endogenous activation by central necrosis ([6]; ovarian, breast, stomach, lung and bowel carcinoma xenografts): confirmed in a large number of human tumor xenografts

CC(OC(=O)OCc1ccc(O[C@@H]2O[C@H](C(=O)O)[C@@H](O)[C@H](O)[C@H]2O)c([N+](=O)[O-])c1)=C(C#N)C(=O)Nc1ccc(C(F)(F)F)cc1 [Compound 22, 4-(β-D-Glucuronyloxy)-3-nitrobenzyl 2-[1-cyano-1-(N-4-trifluoromethylphenyl)carbamoyl]propen-1-yl carbonate]
activity by comparison with the active substance (Leflunomide) (EAE): superior activity
activity by comparison with the active substance (Leflunomide) (adjuvant arthritis): superior activity

COc1cccc2c1C(=O)c1c(O)c3c(c(O)c1C2=O)C[C@@](O)(C(=O)CO)C[C@@H]3O[C@H]1C[C@H](N)[C@H](O)[C@H](C)O1 [Doxorubicin, doxorubicin, reference compound]
T/C ([5]; 12 mg/kg): 78.4%
T/C ([5]; 12 mg/kg, listed as doxorubicin): ~ 80%

O=C(O)[C@H]1O[C@@H](Oc2nc(=O)[nH]cc2F)[C@H](O)[C@@H](O)[C@@H]1O [FUOG, 5-fluorouracil O-.rho.-D-glucuronide]
effect on mouse mammary carcinoma (mouse mammary carcinoma): distinct effect

CC(C)Cc1ccc(C(C)C(=O)O)cc1 (stereo not shown) [Ibuprofen, ibuprofen, reference compound]
24 h foot swelling ([3]; 200 mg/kg, 1 × p.o. (t = 0), marked xx): 1.7 ± 2.2

CCCC(=O)O [butyric acid]
therapeutic effects compared with cisplatin [7]: inferior to those of a standard cytostatic (cisplatin)
